The subject of experiment [1] is CU-ACC1. The experiment can be described thus: area under concentration-response curve (viability) (AUC (a.u.)); higher = less active. The following applies: 48 h. Put shortly:
(§1)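 For each of three adrenocortical carcinoma cell lines, 500–1,000 cells/well were placed in 5 µL medium in 1,536-well plates. A 23 nL volume of every library compound was added at 11 concentrations. Following 48 h, a 15-minute room-temperature CellTiter-Glo step preceded luminescence reading, with signals normalised per plate to vehicle and empty-well controls. AC50 and area under the curve were derived by curve fitting, retaining only inhibitory or non-responding curve classes.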

For experiment [2], the system named is NCI-H295R. The experiment is described as above. The settings on record: 48 h. Put shortly: as §1

“And” between values parts separate entries of the source, which are not always exact repeats. Equal values may be shown once.

Consider 57 compounds from the supplement of paper PMC10949913.

On to `CC(C)c1ccccc1Cc1cc(C(=O)Nc2ccc([S+](=O)([O-])c3ccccc3C(C)(C)C)cc2)c(O)c(O)c1O`, for which the “area under concentration-response curve” value was 293 in experiment [1] and 205 in experiment [2].
The like results for `CC(C)(S)[C@@H](N)C(=O)O` were, in that order, 637 and 711.
The like results for `O=C(Nc1cnn2ccc(N3CCC[C@@H]3c3cc(F)ccc3F)nc12)N1CC[C@H](O)C1` were, in that order, 534 and 554.
As for `C[C@H]1C[C@H]2[C@@H]3CC[C@](O)(C(=O)CO)[C@@]3(C)C[C@H](O)[C@@H]2[C@@]\4(C)/C=C\C(=O)\C=C14`, the “area under concentration-response curve” value in experiment [1] stood at 520; in experiment [2] it was 553.
For `CC1(C)O[C@@H]2C[C@H]3[C@@H]4CCC/5=C/C(=O)/C=C\[C@]5(C)[C@H]4[C@@H](O)C[C@]3(C)[C@@]2(O1)C(=O)CO`, the “area under concentration-response curve” value in experiment [1] stood at 469; in experiment [2], 524.
The like results for `C[C@@H]1CC(=O)Nc2cccc(-c3cnn(C(C)(C)C)c3)c2N1` were, in that order, 551 and 570.
The like results for `C[C@@]1(c2ncncc2F)NC(=O)c2cc(-c3cn[nH]c3)ccc21` were, in that order, 528 and 546.
`O=[S+]([O-])(CCSSCC[S+](=O)([O-])[O][Na])[O][Na]`: the entries for the “area under concentration-response curve” value in experiment [1] and in experiment [2] were 469 and 544, respectively.
Regarding `N[C@H](CSC(c1ccccc1)(c1ccccc1)c1ccccc1)C(=O)O`, the “area under concentration-response curve” value in experiment [1] stood at 529; in experiment [2], 564.
The like results for `COC1=C(OC)C=C2C(=C1)C(=O)N(CCCN3CCOCC3)\C4=C2\C(=O)C5=C4C=C6OCOC6=C5` were, in that order, 400 and 463.
On the same counts, the results for `Nc1nc2cc(-c3ccc4ncc(C(=O)N5CCOCC5)n4c3)ccc2o1` are 514 and 478.
On the same counts, the results for `O=C(O)C1(Cc2cccc(Nc3nccs3)n2)CCC(Oc2cccc(Cl)c2F)CC1` (stereo not given) are 511 and 510.
Take `COc1nc(N)nc2c1ncn2C1OC(CO)C(O)C1O` (stereo not given): the “area under concentration-response curve” value in experiment [1] was found to be 461; in experiment [2], 469.
The like results for `COC(=O)[C@@H]1CC/2=C/C(=O)CC[C@]2(C)[C@@]34O[C@@H]3C[C@@]5(C)[C@@H](CC[C@@]56CCC(=O)O6)[C@H]14` were, in that order, 355 and 528.
On the same counts, the results for `O=C(O)/C(S)=C/c1ccc(I)cc1` are 368 and 459.
Take `COc1cccc(OC)c1-c1cc(C(=O)NC2(C(=O)O)C3CC4CC(C3)CC2C4)nn1-c1ccnc2cc(Cl)ccc12` (stereo not given): the “area under concentration-response curve” value in experiment [1] came out at 513; in experiment [2] it was 569.
The like results for `C[N]1N=CC=C1C/2=C(\C)N(C(=O)C(=C2)/C(=O)NCC3=NC=C(C=C3)[S+](C)([O-])=O)C4=CC=CC(=C4)C(F)(F)F` were, in that order, 380 and 277.
On the same counts, the results for `Cc1csc(-c2nnc(Nc3ccc(Oc4ncccc4-c4ccnc(N)n4)cc3)c3ccccc23)c1` are 504 and 470.
Turning to `CC(=O)Oc1ccccc1C(=O)O`, the “area under concentration-response curve” value is 357 in experiment [1] and 402 in experiment [2].
With `CC#CC(=O)N1CCC[C@H]1c1nc(-c2ccc(C(=O)Nc3ccccn3)cc2)c2c(N)nccn12`, the “area under concentration-response curve” value was 474 in experiment [1] and 509 in experiment [2].
On the same counts, the results for `O=C(NOCCO)c1cc(CN2OCCCC2=O)c(F)c(F)c1Nc1ccc(I)cc1F` are 267 and 267.
`N[C@@H](Cc1c[nH]c2ccc(O)cc12)C(=O)O`: the figures for the “area under concentration-response curve” value in experiment [1] and in experiment [2] were 483 and 567, respectively.
For `COc1cc(N2CCN(C)CC2)ccc1Nc1ncc2c(n1)N(C)c1ccccc1C(=O)N2C`, the “area under concentration-response curve” value in experiment [1] was found to be 389; in experiment [2] it was 459.
On the same counts, the results for `CC[C@@H]1[C@H](F)C(=O)N[C@@H]1COc1nccc2cc(C(N)=O)c(OC)cc12` are 472 and 532.
`CCc1ccc(CCOc2ccc(CC3SC(=O)NC3=O)cc2)nc1` (stereo not given): the “area under concentration-response curve” value in experiment [1] amounted to 112; in experiment [2], 110.
On the same counts, the results for `CC(=O)N[C@H]1CSSC[C@@H](C(N)=O)NC(=O)[C@H](C(C)C)NC(=O)[C@H](C)NC(=O)[C@H](Cc2cnc[nH]2)NC1=O` are 501 and 551.
Regarding `Cn1ncc(Cl)c1-c1cc(C(=O)N[C@H](CN)Cc2cccc(F)c2)sc1Cl`, the results for the “area under concentration-response curve” value in experiment [1] and in experiment [2] were 305 and 335, respectively.
Regarding `CCOc1ccc(Cc2cc([C@@H]3O[C@H](CO)[C@@H](O)[C@H](O)[C@H]3O)ccc2Cl)cc1`, the “area under concentration-response curve” value in experiment [1] was determined as 464; in experiment [2], 494.
For `CCN(CCO)CCCC(C)Nc1ccnc2cc(Cl)ccc12` (stereo not given), in experiment [2], the “area under concentration-response curve” value amounted to 368.
Regarding `CCC[S+](=O)([O-])Nc1ccc(F)c(C(=O)c2c[nH]c3ncc(-c4ccc(Cl)cc4)cc23)c1F`, in experiment [2], the “area under concentration-response curve” value is 556.
`O=C(O)c1ccc(-c2c[nH]c3ncc(-c4ccccc4)cc23)cc1C1CCCC1`: in experiment [2], the “area under concentration-response curve” value is 501.
On the same count and under the same terms, to `CCCN[C@H]1CCc2nc(N)sc2C1` belongs 566; to `O=C(O)CCCc1c[nH]c2ccccc12`, 400.
On the same count and under the same terms, to `CN(C)CCNC(=O)COc1c2cccc1Cc1cccc(c1OCC(=O)NCCN(C)C)Cc1cccc(c1OCC(=O)NCCN(C)C)Cc1cccc(c1OCC(=O)NCCN(C)C)C2` belongs 485; to `CN(C)Cc1cccc(N/C(=C2\C(=O)Nc3cc(C(=O)N(C)C)ccc32)c2ccccc2)c1`, 558; to `CCN1CCN(C(=O)N[C@@H](C(=O)N[C@H]2[C@H]3SC\C(=C(/N3C2=O)C(O)=O)CSC4=NN=N[N]4C)C5=CC=C(O)C=C5)C(=O)C1=O`, 269.
Still for that read-out and setting: the figure for `CCc1cc(C(N)=S)ccn1` is 552; for `CNCc1ccc(-c2cc(-c3nc(-c4ccc([S+](=O)([O-])C(C)C)cc4)cnc3N)on2)cc1` it is 413; for `CCCN(CCC)C(=O)C\1=C\C2=CC=C(C=C2\N=C(N)/C1)C3=CC=C(C=C3)C(=O)N4CCCC4` it is 581.
For the compound `Clc1ccc(Nc2nnc(Cc3ccncc3)c3ccccc23)cc1`, the “area under concentration-response curve” value in experiment [2] came to 295.
Still for that read-out and setting: the figure for `CC(C)(O)c1coc([S+](=O)([O-])NC(=O)Nc2c3c(cc4c2CCC4)CCC3)c1` is 555; for `OC[C@H]1O[C@@H](Oc2cc(O)cc(/C=C/c3ccc(O)cc3)c2)[C@H](O)[C@@H](O)[C@@H]1O` it is 579; for `NC(=O)c1ncn([C@@H]2O[C@H](CO)[C@@H](O)[C@H]2O)c1O` it is 401 and 302.
Turning to `C=CC(=O)N1CCC[C@@H](n2nc(-c3ccc(Oc4ccccc4)cc3)c3c(N)ncnc32)C1`, the “area under concentration-response curve” value in experiment [2] came out at 459.
Still for that read-out and setting: to `CC\12CCC(=O)\C=C1CCC3C2CCC4(C)C3CCC4(O)C#C` (stereo not given) belongs 440; to `CNC(=O)[C@H]1O[C@@H](n2cnc3c(NCc4cccc(I)c4)nc(Cl)nc32)[C@H](O)[C@@H]1O`, 366.
The same measure, in the same setting: to `CC(C)[S+](=O)([O-])c1ccc2nccc(Nc3ccc4scnc4c3)c2c1` belongs 491; to `OC[C@H]1O[C@H]([C@H](O)[C@@H](O)[C@@H]1O)C2=C(O)C=CC3=C2O/C=C(C3=O)/C4=CC=C(O)C=C4`, 540.
As to `COc1ccc(N(C(=O)Oc2c(C)cccc2C)c2ccnc(Nc3ccc(N4CCN(C)CC4)cc3)n2)c(OC)c1`, in experiment [2], the “area under concentration-response curve” value was determined as 545.
Same read-out and setting: the figure for `C[C@@H]1C(=O)O[C@H]2CC34[C@H]5C[C@@H](C(C)(C)C)C36[C@@H](OC(=O)[C@@H]6O)O[C@@]4(C(=O)O5)[C@]21O` (stereo not given in full) is 21.9.
On the same count and under the same terms, to `O=C(O)CCCCC(CCSCc1ccccc1)SCc1ccccc1` (stereo not given) belongs 589.
Still for that read-out and setting: to `C/C=C(/C(=C/C)c1ccc(O)cc1)c1ccc(O)cc1` belongs 366; to `CCOC(=O)c1ncn2c1CN(C)C(=O)c1cc(F)ccc1-2`, 532.
As for `COc1ccc(-c2cnc3c(-c4cccc5ncccc45)cnn3c2)cc1`, the “area under concentration-response curve” value in experiment [2] stood at 595.
On the same count and under the same terms, to `OC1=CC=C(C=C1)\C2=C\C(=O)C3=C(O2)C=C(O)C=C3O` belongs 389; to `CCOC(=O)C(C#N)C\1C2=CC(=CC=C2O\C(=C1C(=O)OCC)N)Br` (stereo not given), 569.
Still for that read-out and setting: the figure for `COc1cc2c(cc1O)CC[C@@H]1[C@@H]2CC[C@]2(C)[C@@H](O)CC[C@@H]12` is 383.
